Values of other authors as cited in patent US20070207107A1, “Silicone based emulsions for topical drug delivery” (priority 2006, published 2007).

Columns and labels:
[1] = drug dissolved in 98% hexamethyldisiloxane and 2% silicone gum
[2] = result in words

SMILES	skin penetration from silicone formulation compared with silicone-free emulsion [1]	skin permeability (classification) [2]
Clc1ccc(COC(Cn2ccnc2)c2ccc(Cl)cc2Cl)cc1 (stereo not shown) [econazole nitrate]	reduced penetration	–
Cn1c(=O)c2c(ncn2C)n(C)c1=O [Caffeine]	–	relatively high skin permeability
C[C@]12CCC(=O)C=C1CC[C@@H]1[C@@H]2[C@@H](O)C[C@@]2(C)[C@H]1CC[C@]2(O)C(=O)CO [hydrocortisone]	formation of a reservoir of hydrocortisone in the stratum corneum	–
CC(C)Cc1ccc(C(C)C(=O)O)cc1 (stereo not shown) [ibuprofen]	increased the penetration	–
